Data published in US7989464B2, “mGluR1 antagonists as therapeutic agents” (Schering Corporation, priority 2004, dated 2011).

target: T1, hmGluR1 receptor (Homo sapiens, UniProt Q13255); assay: IC50 determination: intracellular calcium mobilization (FLIPR) upon Quisqualate stimulation in CHO cells stably expressing hmGluR1; type: cell-based; conditions: against Quisqualate 1 μM (EC80), FLIPR calcium mobilization, read-out: IC50 Class
T1 construct: expressed in transfected cells
How it was run: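 CHO cells stably expressing hmGluR1 were kept overnight in DMEM high glucose with GPT and 1 mM pyruvate, then loaded 2 h with Calcium 3 dye.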

T1 sequence (Q13255 19-1194): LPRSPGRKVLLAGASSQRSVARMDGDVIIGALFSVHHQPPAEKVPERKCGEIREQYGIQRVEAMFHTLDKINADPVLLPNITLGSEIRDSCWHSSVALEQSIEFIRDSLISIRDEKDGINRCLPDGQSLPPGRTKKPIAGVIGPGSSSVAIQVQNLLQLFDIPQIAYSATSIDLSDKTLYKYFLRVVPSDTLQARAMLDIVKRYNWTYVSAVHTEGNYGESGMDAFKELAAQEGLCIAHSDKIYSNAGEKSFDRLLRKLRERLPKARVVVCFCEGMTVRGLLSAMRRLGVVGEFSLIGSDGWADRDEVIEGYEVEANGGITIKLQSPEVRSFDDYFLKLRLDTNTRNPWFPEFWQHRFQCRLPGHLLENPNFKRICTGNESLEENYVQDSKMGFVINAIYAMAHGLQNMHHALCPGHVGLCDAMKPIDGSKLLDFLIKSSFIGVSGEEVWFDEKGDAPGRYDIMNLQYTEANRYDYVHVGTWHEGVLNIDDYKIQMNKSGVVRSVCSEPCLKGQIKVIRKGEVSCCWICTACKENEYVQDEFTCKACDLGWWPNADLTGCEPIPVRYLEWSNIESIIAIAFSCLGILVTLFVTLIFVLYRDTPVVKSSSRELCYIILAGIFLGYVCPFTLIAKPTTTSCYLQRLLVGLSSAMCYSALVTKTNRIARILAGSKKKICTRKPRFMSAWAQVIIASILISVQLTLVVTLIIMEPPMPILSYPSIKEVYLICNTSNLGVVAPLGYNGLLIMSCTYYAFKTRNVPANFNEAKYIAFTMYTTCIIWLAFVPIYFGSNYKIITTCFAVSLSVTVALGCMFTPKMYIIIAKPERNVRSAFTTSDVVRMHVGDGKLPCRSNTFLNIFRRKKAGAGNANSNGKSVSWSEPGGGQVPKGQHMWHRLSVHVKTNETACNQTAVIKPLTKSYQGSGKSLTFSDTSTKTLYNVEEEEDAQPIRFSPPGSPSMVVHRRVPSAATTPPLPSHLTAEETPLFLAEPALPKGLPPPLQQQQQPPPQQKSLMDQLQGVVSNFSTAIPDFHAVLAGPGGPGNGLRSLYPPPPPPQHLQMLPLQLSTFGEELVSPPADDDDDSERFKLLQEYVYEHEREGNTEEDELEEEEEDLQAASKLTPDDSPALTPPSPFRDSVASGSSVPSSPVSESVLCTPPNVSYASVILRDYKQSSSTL

Compound | IC50 [nM]
COc1ccc(-n2cnc3c(sc4nccc(NC5CC5)c43)c2=O)cc1F [28HE] | < 50
O=c1c2sc3nccc(NC4CC4)c3c2ncn1-c1ccc(Cl)cc1 [28HF] | < 50
CN(CCO)c1ccnc2sc3c(=O)n(-c4ccc(Cl)cc4)cnc3c12 [28HG] | < 50
CN(CCO)c1ccnc2sc3c(=O)n(-c4ccc(F)cc4)cnc3c12 [28HH] | 50 to 150
CN(CCO)c1ccnc2sc3c(=O)n(-c4ccc(Br)cc4)cnc3c12 [28HI] | < 50
COc1ccc(-n2cnc3c(sc4nccc(N(C)CCO)c43)c2=O)cc1 [28HJ] | < 50
COc1ccc(-n2cnc3c(sc4nccc(NCCCO)c43)c2=O)cc1 [28HK] | < 50
COCCCNc1ccnc2sc3c(=O)n(-c4ccc(OC)cc4)cnc3c12 [28HL] | < 50
CC(O)CCNc1ccnc2sc3c(=O)n(-c4ccc(Cl)cc4)cnc3c12 (stereo not shown) [28HM] | < 50
CC(O)CCNc1ccnc2sc3c(=O)n(-c4ccc(F)cc4)cnc3c12 (stereo not shown) [28HN] | < 50
CC(O)CCNc1ccnc2sc3c(=O)n(-c4ccc(Br)cc4)cnc3c12 (stereo not shown) [28HO] | < 50
COc1ccc(-n2cnc3c(sc4nccc(NCCC(C)O)c43)c2=O)cc1 (stereo not shown) [28HP] | < 50
CN(CC(O)CO)c1ccnc2sc3c(=O)n(-c4ccc(Cl)cc4)cnc3c12 (stereo not shown) [28HQ] | 50 to 150
CN(CC(O)CO)c1ccnc2sc3c(=O)n(-c4ccc(F)cc4)cnc3c12 (stereo not shown) [28HR] | 150 to 1000
O=c1c2sc3nccc(NC4CC4)c3c2ncn1-c1ccc(O)cc1 [28HS] | < 50
O=c1c2sc3nccc(NC4CC4)c3c2ncn1-c1ccc(OS(=O)(=O)C(F)(F)F)cc1 [28HT] | > 1000
CN(CC(O)CO)c1ccnc2sc3c(=O)n(-c4ccc(Br)cc4)cnc3c12 (stereo not shown) [28HU] | < 50
COc1ccc(-n2cnc3c(sc4nccc(N(C)CC(O)CO)c43)c2=O)cc1 (stereo not shown) [28HV] | < 50
COCCCNc1ccnc2sc3c(=O)n(-c4ccc(O)cc4)cnc3c12 [28HW] | < 50
COCCCNc1ccnc2sc3c(=O)n(-c4ccc(OS(=O)(=O)C(F)(F)F)cc4)cnc3c12 [28HX] | 150 to 1000
CCNc1ccnc2sc3c(=O)n(-c4ccc(F)cc4)cnc3c12 [28HY] | < 50

Compound | IC50 [nM]
CCNc1ccnc2sc3c(=O)n(-c4ccc(Cl)cc4)cnc3c12 [28HZ] | < 50
CCN(C)c1ccnc2sc3c(=O)n(-c4ccc(OC)c(F)c4)cnc3c12 [28IA] | < 50
CNc1ccnc2sc3c(=O)n(-c4ccc(F)cc4)cnc3c12 [28IB] | < 50
CCN(C)c1ccnc2sc3c(=O)n(-c4ccc(Cl)cc4)cnc3c12 [28IC] | < 50
CCN(C)c1ccnc2sc3c(=O)n(-c4ccc(F)cc4)cnc3c12 [28ID] | < 50
CCN(C)c1ccnc2sc3c(=O)n(-c4ccc5c(c4)OCO5)cnc3c12 [28IE] | < 50
C=Cc1ccnc2sc3c(=O)n(-c4ccc(Cl)cc4)cnc3c12 [29E] | < 50
Cc1ccc(-n2cnc3c(sc4nccc(C(C)C)c43)c2=O)cc1 [29F] | < 50
CCc1ccnc2sc3c(=O)n(-c4ccc(C)cc4)cnc3c12 [29G] | < 50
COc1ccc(-n2cnc3c(sc4nccc(C(C)C)c43)c2=O)cc1 [29H] | < 50
CCc1ccnc2sc3c(=O)n(-c4ccc(OC)cc4)cnc3c12 [29I] | < 50
CC(C)c1ccnc2sc3c(=O)n(-c4ccc(Cl)cc4)cnc3c12 [29J] | < 50
CCc1ccnc2sc3c(=O)n(-c4ccc(Cl)cc4)cnc3c12 [29K] | < 50
COc1ccc(-n2cnc3c(sc4nc(Cl)cc(OC)c43)c2=O)cc1 [57B] | > 1000
COc1ccc(-n2cnc3c(sc4nc(Cl)cc(N(C)C)c43)c2=O)cc1 [57C] | < 50
COc1ccc(-n2cnc3c(sc4nc(Cl)cc(NC5CC5)c43)c2=O)cc1 [57D] | 150 to 1000
O=c1c2sc3nccc(Cl)c3c2ncn1-c1ccc(Cl)cc1 [57E] | 150 to 1000
COc1ccc(-n2cnc3c(sc4nc(N)cc(N(C)C)c43)c2=O)cc1 [59F] | < 50
COc1ccc(-n2cnc3c(sc4nc(N)cc(NC5CC5)c43)c2=O)cc1 [59G] | < 50
COc1ccc(-n2cnc3c(sc4nc(N)cc(N)c43)c2=O)cc1 [59H] | < 50
COc1ccc(-n2cnc3c(sc4nc(Cl)cc(N)c43)c2=O)cc1 [59I] | 50 to 150

same assay, conditions: against Quisqualate 1 μM (EC80), FLIPR calcium mobilization, read-out: mGluR1 IC50

Compound | IC50 [nM]
CCNc1ccnc2sc3c(=O)n(-c4ccc(Cl)cc4)cnc3c12 [28HZ] | 1.22
CCN(C)c1ccnc2sc3c(=O)n(-c4ccc(Cl)cc4)cnc3c12 [28IC] | 2.09
C#CCNc1ccnc2sc3c(=O)n(-c4ccc(C)cc4)cnc3c12 [28Z] | 1.47

same assay, conditions: against Quisqualate 1 μM (EC80), class symbols, read-out: mGIuR 1 IC50

Compound | IC50 [nM]
O=c1c2sc3nccc(Nc4ccccc4)c3c2ncn1C1CCCCC1 [28H] | > 1000
CNc1ccnc2sc3c(=O)n(-c4ccc(OC)cc4)cnc3c12 [28I] | < 50
CCN(CC)c1ccnc2sc3c(=O)n(C4CCCCC4)cnc3c12 [28J] | 150 to 1000
CCCN(CCC)c1ccnc2sc3c(=O)n(C4CCCCC4)cnc3c12 [28K] | > 1000
O=c1c2sc3nccc(N4CCCCC4)c3c2ncn1C1CCCCC1 [28L] | > 1000
O=c1c2sc3nccc(N4CC[C@@H](O)C4)c3c2ncn1C1CCCCC1 [28M] | > 1000
O=c1c2sc3nccc(N4CC[C@H](O)C4)c3c2ncn1C1CCCCC1 [28N] | > 1000
O=c1c2sc3nccc(N4CCOCC4)c3c2ncn1C1CCCCC1 [28O] | > 1000
CCNc1ccnc2sc3c(=O)n(C4CCCCC4)cnc3c12 [28P] | < 50
CCCNc1ccnc2sc3c(=O)n(C4CCCCC4)cnc3c12 [28Q] | 50 to 150
CCCCNc1ccnc2sc3c(=O)n(C4CCCCC4)cnc3c12 [28R] | 150 to 1000
O=c1c2sc3nccc(NC4CC4)c3c2ncn1C1CCCCC1 [28S] | < 50
O=c1c2sc3nccc(NC4CCCC4)c3c2ncn1C1CCCCC1 [28T] | > 1000
O=c1c2sc3nccc(N4CCNCC4)c3c2ncn1C1CCCCC1 [28U] | > 1000
O=c1c2sc3nccc(N4CCC4)c3c2ncn1C1CCCCC1 [28V] | 150 to 1000
O=c1c2sc3nccc(NC4CCC4)c3c2ncn1C1CCCCC1 [28W] | 150 to 1000
CNc1ccnc2sc3c(=O)n(C4CCCCC4)cnc3c12 [28X] | < 50
CCN(C)c1ccnc2sc3c(=O)n(C4CCCCC4)cnc3c12 [28Y] | < 50
C#CCNc1ccnc2sc3c(=O)n(-c4ccc(C)cc4)cnc3c12 [28Z] | < 50
Cc1ccc(-n2cnc3c(sc4nccc(NC[C@@H](C)O)c43)c2=O)cc1 [29A] | 150 to 1000

Compound | IC50 [nM]
O=c1c2sc3nccc(C4CCCC4)c3c2ncn1C1CCCCC1 [29B] | > 1000
CCc1ccnc2sc3c(=O)n(C4CCCCC4)cnc3c12 [29C] | 50 to 150
O=c1c2sc3nccc(-n4cccn4)c3c2ncn1C1CCCCC1 [30B] | > 1000
O=C1CCCN1c1ccnc2sc3c(=O)n(C4CCCCC4)cnc3c12 [30C] | > 1000
CN(C)c1cncc2sc3c(=O)n(C4CCCCC4)cnc3c12 [37A] | 150 to 1000
CN(C)c1cncc2sc3c(=O)n(-c4ccc5scnc5c4)cnc3c12 [37B] | 150 to 1000
CN(C)c1cncc2sc3c(=O)n(-c4ccc5c(c4)OCCO5)cnc3c12 [37C] | 50 to 150
CN(C)c1cncc2sc3c(=O)n(-c4ccccc4)cnc3c12 [37D] | 150 to 1000
CN(C)c1cncc2sc3c(=O)n(-c4ccc(Cl)cc4)cnc3c12 [37E] | < 50
COc1ccc(-n2cnc3c(sc4cncc(N(C)C)c43)c2=O)cc1 [37F] | 50 to 150
COc1ccc(-n2cnc3c(sc4cncc(N(C)C)c43)c2=O)cc1F [37G] | 150 to 1000
CN(C)c1cncc2sc3c(=O)n(-c4ccc(O)cc4)cnc3c12 [37H] | > 1000
CN(C)c1c(-c2cccc(C#N)c2)cnc2sc3c(=O)n(C4CCCCC4)cnc3c12 [47A] | 150 to 1000
CN(C)c1c(-c2ccc(F)cc2)cnc2sc3c(=O)n(C4CCCCC4)cnc3c12 [47B] | > 1000
Cc1ccc(-n2cnc3c(sc4nc(N5CCN(C)CC5)cc(N(C)C)c43)c2=O)cc1 [59A] | > 1000
Cc1ccc(-n2cnc3c(sc4nc(N5CCNCC5)cc(N(C)C)c43)c2=O)cc1 [59B] | > 1000
Cc1ccc(-n2cnc3c(sc4nc(N5CCOCC5)cc(N(C)C)c43)c2=O)cc1 [59C] | > 1000
CN(C)c1ccnc2sc3c(=O)n(N4CCCCC4)cnc3c12 [60A] | < 50
CN(C)c1ccnc2sc3c(=O)n(Nc4ccccc4)cnc3c12 [60B] | < 50
Cc1ccc(Nn2cnc3c(sc4nccc(N(C)C)c43)c2=O)cc1 [60C] | < 50

Compound | IC50 [nM]
CN(C)c1ccnc2sc3c(=O)n(N4CCCCCC4)cnc3c12 [60D] | < 50
CN(C)c1ccnc2sc3c(=O)n(N4CC5CCCC5C4)cnc3c12 (stereo not shown) [60E] | < 50
CC1CCCC(C)N1n1cnc2c(sc3nccc(N(C)C)c32)c1=O (stereo not shown) [60F] | 50 to 150
CN(C)c1ccnc2sc3c(=O)n(NC4CCCCC4)cnc3c12 [60G] | < 50
CN(C)c1ccnc2sc3c(=O)n(N)cnc3c12 [60H] | > 1000
CN(C)c1ccnc2sc3c(=O)n(N4CCCC4)cnc3c12 [60I] | 50 to 150
CN(C)c1ccnc2sc3c(=O)n(N(c4ccccc4)c4ccccc4)cnc3c12 [60J] | > 1000
CN(C)c1cncc2sc3c(=O)n(N4CCCCC4)cnc3c12 [60L] | 150 to 1000
CN1CCN(c2ccnc3sc4c(=O)n(C5CCCCC5)cnc4c23)CC1 [61A] | > 1000
O=c1c2sc3nccc(N4CCN(CC5CC5)CC4)c3c2ncn1C1CCCCC1 [61B] | > 1000
CC(=O)Nn1c(C)nc2c(sc3nccc(N(C)C)c32)c1=O [65A] | > 1000
CN(C)c1ccnc2sc3c(=O)n(NC(=O)C(F)(F)F)c(C(F)(F)F)nc3c12 [65B] | > 1000
CN(C)c1ccnc2sc3c(=O)n(NC(=O)C4CC4)c(C4CC4)nc3c12 [65C] | > 1000
CN(C)c1ccnc2sc3c(=O)n(NC(=O)C4CCC4)c(C4CCC4)nc3c12 [65D] | > 1000
CN(C)c1ccnc2sc3c(=O)n(N)c(-c4ccccc4)nc3c12 [65E] | > 1000
C#CCOc1ccnc2sc3c(=O)n(-c4ccc(C)cc4)cnc3c12 [66A] | < 50
CC#CCOc1ccnc2sc3c(=O)n(-c4ccc(C)cc4)cnc3c12 [66B] | > 1000
Cc1ccc(-n2cnc3c(sc4nccc(OC5CCCC5)c43)c2=O)cc1 [66C] | > 1000
